The assay has as its target T1, bovine thrombin (Bos taurus, UniProt P00735).
T1 construct: bovine thrombin and argatroban were purchased from Sigma-Aldrich; purchased Sigma-Aldrich (St. Louis, MO, USA)
Kind of assay: Thrombin inhibitory activity assay (chromogenic substrate S-2238).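 On all read-outs here: microplate absorbance read-out, thrombin preincubated with test compound 5 min at 37 °C in PBS pH 7.2-7.4, inhibition relative to blank without compound after subtracting compound-only background.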 In kind it is biochemical. Conditions: for Group (inhibitor class) / inhibitor class: class by anti-thrombin IC50.

Where [1] appears, read: Table 1, anti-thrombin, substrate S-2238 4 mg/mL, read-out: IC50.
[2] abbreviates: Table 2, anti-thrombin, read-out: IC50 ±SD.
Where [3] appears, read: thrombin inhibition, substrate 4 mg/mL, read-out: IC50.

Read-outs that look alike come from different tables or passages of the source.

With `O=C(OC1Cc2c(O)cc(O)cc2OC1c1ccc(O)c(O)c1)c1cc(O)c(O)c(O)c1` (single isomer, unassigned; (-)) [(-)-Epicatechin gallate], the IC50 under setting [1] was above 500 µM.

For the compound `Oc1cc(O)c2c(c1)OC(c1cc(O)c(O)c(O)c1)C(O)C2` (single isomer, unassigned; (-)) [(-)-epigallocatechin], the IC50 (IC50) is above 500 µM.

Turning to `O=c1cc(-c2ccc(O)cc2)oc2cc(O)cc(O)c12` [Apigenin], the “Group (inhibitor class)” value (Table 2) is given as “Strong inhibitor”.

As for `O=c1c(OC2OC(CO)C(O)C(O)C2O)c(-c2ccc(O)cc2)oc2cc(O)cc(O)c12` (stereo not drawn) [Astragaline], the inhibitor class result is “weak thrombin inhibitors (classified as weak thrombin inhibitors since their IC50 values ranged from 200 μM to 500 μM)”. For the same compound, under setting [1], the IC50 is 217 ± 5 µM.

For the compound `O=c1cc(-c2ccccc2)oc2cc(O)c(O)c(O)c12` [Baicalein], the inhibitor class entry is “weak thrombin inhibitors (classified as weak thrombin inhibitors since their IC50 values ranged from 200 μM to 500 μM)”. Moreover, the IC50 under setting [1] is 249 ± 31 µM.

Take `O=C(O)[C@H]1O[C@@H](Oc2cc3oc(-c4ccccc4)cc(=O)c3c(O)c2O)[C@H](O)[C@@H](O)[C@@H]1O` [Baicalin]: the IC50 stood at 88.6 ± 8.2 µM under setting [1] and 88.6 ± 8.2 µM under setting [2]. Further, the “Group (inhibitor class)” value (Table 2) is “Strong inhibitor”.

On to `O=C1c2c(O)cc(O)cc2O[C@H](c2cc(O)c(O)c(O)c2)[C@H]1O` [Dihydromyricetin], for which the IC50 under setting [1] is above 500 µM.

For the compound `O=C1c2c(O)cc(O)cc2O[C@H](c2ccc(O)c(O)c2)[C@H]1O` [Dihydroquercetin], the half-inhibitory concentration (IC50) under setting [1] is above 500 µM.

Consider `COc1ccc(-c2cc(=O)c3c(O)cc(O)cc3o2)cc1O` [Diosmetin], for which the inhibitor class entry is “moderate inhibitors (compounds with IC50 value ranging from 100 μM to 200 μM were considered as moderate inhibitors)”. Also, the “Group (inhibitor class)” value (Table 2) is on record as “Moderate inhibitor”.

In the case of `Oc1cc(O)c2c(c1)O[C@H](c1ccc(O)c(O)c1)[C@H](O)C2` [Epicatechin], the IC50 under setting [1] is above 500 µM.

As for `O=c1c(O)c(-c2ccc(O)c(O)c2)oc2cc(O)ccc12` [Fisetin], the inhibitor class result is “moderate inhibitors (compounds with IC50 value ranging from 100 μM to 200 μM were considered as moderate inhibitors)”. The IC50 under setting [1] is 175 ± 18 µM. In addition, the “Group (inhibitor class)” value (Table 2) is on record as “Moderate inhibitor”.

`O=c1c(O)c(-c2ccccc2)oc2cc(O)cc(O)c12` [Galangin]: the inhibitor class entry is listed as “moderate inhibitors (compounds with IC50 value ranging from 100 μM to 200 μM were considered as moderate inhibitors)”. Besides, the IC50 under setting [1] was determined as 159 µM. Further, the IC50 under setting [2] stood at 159 µM. Further, the “Group (inhibitor class)” value (Table 2) was “Moderate inhibitor”.

As for `COc1cc(O)c2c(=O)cc(-c3ccc(O)cc3)oc2c1` [Genkwanin], the inhibitor class result is “weak thrombin inhibitors (classified as weak thrombin inhibitors since their IC50 values ranged from 200 μM to 500 μM)”. Moreover, under setting [1], the IC50 stood at 212 ± 30 µM. The IC50 under setting [3] worked out at 211 µM.

Take `O=c1c(O)c(-c2ccc(O)cc2)oc2c(O)c(O)cc(O)c12` [Herbacetin]: the inhibitor class entry is “moderate inhibitors (compounds with IC50 value ranging from 100 μM to 200 μM were considered as moderate inhibitors)”. Moreover, the IC50 under setting [1] came to 133 ± 4 µM. Besides, under setting [2], the IC50 stood at 133 ± 4 µM. In addition, the “Group (inhibitor class)” value (Table 2) is listed as “Moderate inhibitor”.

Turning to `COc1ccc([C@@H]2CC(=O)c3c(O)cc(O)cc3O2)cc1O` [Hesperetin], the IC50 under setting [1] is above 500 µM.

In the case of `COc1ccc([C@@H]2CC(=O)c3c(O)cc(O[C@@H]4O[C@H](CO[C@@H]5O[C@@H](C)[C@H](O)[C@@H](O)[C@H]5O)[C@@H](O)[C@H](O)[C@H]4O)cc3O2)cc1O` [Hesperidin], under setting [1], the IC50 was above 500 µM.

For the compound `COc1c(O)cc2oc(-c3ccc(O)cc3)cc(=O)c2c1O` [Hispidulin], the inhibitor class result is reported as “moderate inhibitors (compounds with IC50 value ranging from 100 μM to 200 μM were considered as moderate inhibitors)”. In addition, the IC50 under setting [1] was 126 ± 6 µM. For the same compound, the 50% inhibitory concentration (IC50) under setting [2] came to 126 ± 6 µM. Besides, the “Group (inhibitor class)” value (Table 2) is reported as “Moderate inhibitor”.

For `COc1cc(O)c2c(=O)cc(-c3ccc(O)c(O)c3)oc2c1` [Hydroxygenkwanin], the IC50 by setting is: under setting [1], 99.7 ± 5.5 µM; under setting [2], 99.7 ± 5.5 µM. The “Group (inhibitor class)” value (Table 2) is recorded as “Strong inhibitor”.

For the compound `O=c1c(O[C@@H]2O[C@H](CO)[C@@H](O)[C@H](O)[C@H]2O)c(-c2ccc(O)c(O)c2)oc2cc(O)cc(O)c12` [Isoquercitrin], the IC50 under setting [1] was above 500 µM.

For `COc1cc(-c2oc3cc(O)cc(O)c3c(=O)c2OC2OC(CO)C(O)C(O)C2OC2OC(C)C(O)C(O)C2O)ccc1O` (stereo not drawn) [Isorhamnetin-3-O-neohesperidoside], the IC50 under setting [1] was above 500 µM.

As for `COc1cc(-c2oc3cc(O)cc(O)c3c(=O)c2O)ccc1O` [Isorhamnetin], the “Group (inhibitor class)” value (Table 2) is recorded as “Strong inhibitor”.

`O=c1c(O)c(-c2ccc(O)cc2)oc2cc(O[C@@H]3O[C@H](CO)[C@@H](O)[C@H](O)[C@H]3O)cc(O)c12` [Kaempferol-7-O-β-D-glucopyranoside]: the IC50 under setting [1] was above 500 µM.

For the compound `O=c1c(O)c(-c2ccc(O)cc2)oc2cc(O)cc(O)c12` [Kaempferol], the inhibitor class result is “moderate inhibitors (compounds with IC50 value ranging from 100 μM to 200 μM were considered as moderate inhibitors)”. Further, the half-inhibitory concentration (IC50) under setting [1] worked out at 107 ± 2 µM. The IC50 under setting [2] turned out to be 107 ± 2 µM. The “Group (inhibitor class)” value (Table 2) is given as “Moderate inhibitor”.

For the compound `O=c1cc(-c2ccc(O)c(O)c2)oc2cc(O)cc(O)c12` [Luteolin], the inhibitor class result is given as “moderate inhibitors (compounds with IC50 value ranging from 100 μM to 200 μM were considered as moderate inhibitors)”. Moreover, the IC50 under setting [1] worked out at 146 ± 10 µM. For the same compound, the “Group (inhibitor class)” value (Table 2) was “Moderate inhibitor”.

Take `O=c1cc(-c2ccc(O)c(O)c2)oc2cc(O[C@@H]3O[C@H](CO)[C@@H](O)[C@H](O)[C@H]3O)cc(O)c12` [Luteoloside]: the inhibitor class entry was “moderate inhibitors (compounds with IC50 value ranging from 100 μM to 200 μM were considered as moderate inhibitors)”. For the same compound, the IC50 under setting [1] came to 155 ± 18 µM. For the same compound, the IC50 under setting [2] was 155 ± 18 µM. Also, the “Group (inhibitor class)” value (Table 2) is “Moderate inhibitor”.

As for `O=c1c(O)c(-c2ccc(O)cc2O)oc2cc(O)cc(O)c12` [Morin], the inhibitor class result is given as “weak thrombin inhibitors (classified as weak thrombin inhibitors since their IC50 values ranged from 200 μM to 500 μM)”. For the same compound, the IC50 under setting [1] was 237 ± 26 µM.

As for `O=C1C[C@@H](c2ccc(O)cc2)Oc2cc(O)cc(O)c21` [Naringenin], under setting [1], the IC50 was above 500 µM.

With `C[C@@H]1O[C@@H](O[C@H]2[C@H](Oc3cc(O)c4c(c3)O[C@H](c3ccc(O)cc3)CC4=O)O[C@H](CO)[C@@H](O)[C@@H]2O)[C@H](O)[C@H](O)[C@H]1O` [Naringin], the inhibitor class entry was “weak thrombin inhibitors (classified as weak thrombin inhibitors since their IC50 values ranged from 200 μM to 500 μM)”. In addition, the IC50 under setting [1] stood at 444 ± 59 µM.

As for `C[C@@H]1O[C@@H](OC[C@H]2O[C@@H](Oc3cc(O)c4c(c3)O[C@H](c3ccc(O)cc3)CC4=O)[C@H](O)[C@@H](O)[C@@H]2O)[C@H](O)[C@H](O)[C@H]1O` [Narirutin], the IC50 under setting [1] was above 500 µM.

With `COc1ccc([C@@H]2CC(=O)c3c(O)cc(O[C@@H]4O[C@H](CO)[C@@H](O)[C@H](O)[C@H]4O[C@@H]4O[C@@H](C)[C@H](O)[C@@H](O)[C@H]4O)cc3O2)cc1O` [Neohesperidin], under setting [1], the IC50 is above 500 µM.

With `Oc1cc(O)c2c(c1)OC(c1ccc(O)c(O)c1)C(O)C2c1c(O)cc(O)c2c1OC(c1ccc(O)c(O)c1)C(O)C2` (stereo not drawn) [Proanthocyanidin B1], under setting [1], the IC50 was above 500 µM.

Regarding `O=c1c(O)c(-c2ccc(O)c(O)c2)oc2cc(O)cc(O)c12` [Quercetin], the inhibitor class result was “weak thrombin inhibitors (classified as weak thrombin inhibitors since their IC50 values ranged from 200 μM to 500 μM)”.

Turning to `C[C@@H]1O[C@@H](Oc2c(-c3ccc(O)c(O)c3)oc3cc(O)cc(O)c3c2=O)[C@H](O)[C@H](O)[C@H]1O` [Quercitrin], the concentration for half-maximal inhibition (IC50) under setting [1] is above 500 µM.

`C[C@@H]1O[C@@H](OC[C@H]2O[C@@H](Oc3c(-c4ccc(O)c(O)c4)oc4cc(O)cc(O)c4c3=O)[C@H](O)[C@@H](O)[C@@H]2O)[C@H](O)[C@H](O)[C@H]1O` [Rutin]: the inhibitor class result is “weak thrombin inhibitors (classified as weak thrombin inhibitors since their IC50 values ranged from 200 μM to 500 μM)”. Besides, the IC50 under setting [1] amounted to 274 ± 23 µM.

On to `O=c1cc(-c2ccc(O)cc2)oc2cc(O)c(O)c(O)c12` [Scutellarein], for which the IC50 under setting [1] turned out to be 70.8 ± 2.7 µM, the IC50 under setting [2] turned out to be 70.8 ± 2.7 µM and the half-maximal inhibitory concentration (IC50) under setting [3] is below 100 µM. Also, the “Group (inhibitor class)” value (Table 2) is recorded as “Strong inhibitor”.

In the case of `COc1cc(-c2oc3cc(O)cc(O)c3c(=O)c2O[C@@H]2O[C@H](CO[C@@H]3O[C@@H](C)[C@H](O)[C@@H](O)[C@H]3O)[C@@H](O)[C@H](O)[C@H]2O[C@@H]2O[C@@H](C)[C@H](O)[C@@H](O)[C@H]2O)ccc1O` [Typhaneoside], the IC50 under setting [1] was above 500 µM.

As to `COc1c(O[C@@H]2O[C@H](C(=O)O)[C@@H](O)[C@H](O)[C@H]2O)cc(O)c2c(=O)cc(-c3ccccc3)oc12` [Wogonoside], the half-inhibitory concentration (IC50) under setting [1] was above 500 µM.

Regarding Myricitrin, where the note is “Table 2”, the “Group (inhibitor class)” value was “Strong inhibitor”.

These data come from publication PMC7024217, “Study on Structure Activity Relationship of Natural Flavonoids against Thrombin by Molecular Docking Virtual Screening Combined with Activity Evaluation In Vitro” (Molecules, 2020).
